According to patent US20200155607A1, “Enriched Cellular Compositions and Therapeutic Use” (Abraham J and Phyllis Katz Cord Blood Foundation, priority 2017, published 2020):

Tested on: human dermal fibroblast
Experiment: Fibroblast proliferation by MTT assay
Type: cell-based
Conditions: mitomycin c 10 or 25 μg/ml for 30 or 60 min; MTT at 17 hrs
Protocol: The results from two different studies investigating the effect of mitomycin c on human dermal fibroblast proliferation are shown in FIGS. 5A-5B. Fibroblast cells were plated out in complete media and then treated with mitomycin c (10 μg/ml or 25 μg/ml) for 30 or 60 min. Mitomcyin c was washed out and starvation media was added. Positive controls are 10% FBS and FGF (25 ng/ml). The ODs from the blank wells were subtracted out. Proliferation was measured by MTT assay at 17 hrs.

Q: Which “fibroblast proliferation (MTT)” value does the source give for `CO[C@@]12[C@H](COC(N)=O)C3=C(C(=O)C(C)=C(N)C3=O)N1C[C@@H]1N[C@@H]12` [Mitomycin c, mitomycin c] here?
A: appears to inhibit fibroblast proliferation
